One series addresses CDK4/CyclinD1 (Homo sapiens (Human), UniProt P11802). Briefly: CDK4/cyclinD1 kinase assay (Nanosyn, microfluidic Caliper platform). Conditions: Table 3; read-out: CDK4/CycD1 IC50. Type of series: biochemical. Here is the method: Selected compounds disclosed herein were tested in CDK4/cyclinD1, CDK2/CycA and CDK2/cyclinE kinase assays by Nanosyn (Santa Clara, Calif.) to determine their inhibitory effect on these CDKs. The assays were performed using microfluidic kinase detection technology (Caliper Assay Platform). The compounds were tested in 12-point dose-response format in singlicate at Km for ATP. Phosphoacceptor substrate peptide concentration used was 1 μM for all assays and Staurosporine was used as the reference compound for all assays. Specifics of each assay are as described below:
CDK4/CyclinD1: Enzyme concentration: 1 nM; ATP concentration: 200 μM; Incubation time: 10 hr.

The next series addresses CDK6/CycD3 (Homo sapiens (Human), UniProt Q00534). The experiment in a line: CDK6/CycD3 kinase assay. Type of series: biochemical.
The subject of series [1] is MCF7 (breast adenocarcinoma, Rb-positive). The experiment in a line: Cellular proliferation assay (CellTiter-Glo), MCF7. The class given is cell-based. As for the experimental part: The MCF7 cells were seeded in Costar (Tewksbury, Mass.) 3903 96 well tissue culture treated white walled/clear bottom plates. A nine point dose response dilution series from 10 uM to 1 nM was performed and cell viability was determined after six days of compound treatment as indicated using the CellTiter-Glo® luminescent cell viability assay (CTG; Promega, Madison, Wis., United States of America) following the manufacturer's recommendations. Plates were read on a BioTek (Winooski, Vt.) Syngergy2 multi-mode plate reader. The Relative Light Units (RLU) were plotted as a result of variable molar concentration and data was analyzed using Graphpad (LaJolla, Calif.) Prism 5 statistical software to determine the EC50 for each compound.
(§1) Cellular proliferation assays were conducted using the following cancer cell lines: MCF7 (breast adenocarcinoma—Rb-positive), ZR-75-1 (breast ductal carcinoma—Rb-positive), H69 (human small cell lung cancer—Rb-negative) cells, or A2058 (human metastatic melanoma cells—Rb-negative). These cells were seeded in Costar (Tewksbury, Mass.) […] 96 well tissue culture treated white walled/clear bottom plates. Cells were treated with the compounds of Table 1 as nine point dose response dilution series from 10 uM to 1 nM. Cells were exposed to compounds and then cell viability was determined after either four (H69) or six (MCF7, ZR75-1, A2058) days as indicated using the CellTiter-Glo® luminescent cell viability assay (CTG; Promega, Madison, Wis., United States of America) following the manufacturer's recommendations. Plates were read on BioTek (Winooski, Vt.) Syngergy2 multi-mode plate reader. The Relative Light Units (RLU) were plotted as a result of variable molar concentration and data was analyzed using Graphpad (LaJolla, Calif.) Prism 5 statistical software to determine the EC50 for each compound.

The test system of series [2] is ZR-75-1 (breast ductal carcinoma, Rb-positive). The experiment in a line: Cellular proliferation assay (CellTiter-Glo), ZR-75-1. Type of series: cell-based. As for the experimental part: as §1
Background: Cellular ATP, detected with luciferase, serves as a proxy for viable cell number.

Series [3] in a line: Mouse pharmacokinetics (oral gavage / intravenous). Type of series: in vivo, mice. Conditions: plasma, 30 mg/kg, read-out: F (oral bioavailability). As for the experimental part:
Blood samples were taken at 0, 0.25, 0.5, 1.0, 2.0, 4.0, and 8.0 hours post dosing and the plasma concentrations were determined by HPLC.

Series [4] deals with HSPCs (LKS+). Briefly: Bone marrow HSPC proliferation by EdU incorporation and flow cytometry. Type of series: in vivo. Conditions: 150 mg/kg oral gavage, mice. Here is the method: . JCNI 2012; 104(6):476-487 (FIG. 2A). […].
Mice were then sacrificed at the indicated times (0, 12, 24, 36, or 48 hours following compound administration), and bone marrow was harvested (n=3 mice per time point), as previously described (Johnson et al. J. Clin. Invest. (2010) 120(7), 2528-2536). Four hours before the bone marrow was harvested, mice were treated with 100 μg of EdU by intraperitoneal injection (Invitrogen). Bone marrow mononuclear cells were harvested and immunophenotyped using previously described methods and percent EdU positive cells were then determined (Johnson et al. J. Clin. Invest. (2010) 120(7), 2528-2536). In brief, HSPCs were identified by expression of lineage markers (Lin−), Sca1 (S+), and c-Kit (K+).
Four hours before animals were sacrificed and the bone marrow was harvested, mice were treated with 100 μg of EdU by intraperitoneal injection. Three mice per group were sacrificed at 12 hours and the remaining three animals per group were sacrificed at 24 hours. Results are shown in FIG. 5A as the ratio of EdU positive cells for treated animals at 12 or 24 hour time points compared to control.
Further experiments were completed with Compound T examining dose response and longer periods of compound treatment. […] […].
Both compounds were administered at 150 mg/kg by oral gavage. One hour prior to harvesting bone marrow, EdU was IP injected to label cycling cells. Bone marrow was harvested at 12, 24, 36, and 48 hours after compound treatment and the percentage of EdU positive HSPC cells was determined at each time point.
On the technique in general: A flow cytometer gives signals particle by particle.

The subject of series [5] is MMTV-c-neu (Rb-positive) tumors. Briefly: MMTV-c-neu HER2-driven (Rb-positive) luminal breast cancer mouse model. Type of series: in vivo, mice. The text has this: A HER2-driven model (Rb-positive) of breast cancer (Muller W J, Sinn E, Pattengale P K, Wallace R, Leder P. Single-step induction of mammary adenocarcinoma in transgenic mice bearing the activated c-neu oncogene. Cell 1988; 54: 105-15), that expresses c-neu (the mouse ortholog of human HER2) driven by the MMTV promoter was used in the following example. This model was chosen because previous studies in murine (Yu Q, Geng Y, Sicinski P. Specific protection against breast cancers by cyclin D1 ablation. Nature 2001; 411: 1017-21; Landis M W, Pawlyk B S, Li T, Sicinski P, Hinds P W. Cyclin D1-dependent kinase activity in murine development and mammary tumorigenesis. Cancer Cell 2006; 9: 13-22; Reddy H K, Mettus R V, Rane S G, Grana X, Litvin J, Reddy E P. Cyclin-dependent kinase 4 expression is essential for neu-induced breast tumorigenesis. Cancer Res 2005; 65: 10174-8; Yu Q, Sicinska E, Geng Y, Ahnstrom M, Zagozdzon A, Kong Y, et al. Requirement for CDK4 kinase function in breast cancer. Cancer Cell 2006; 9: 23-32.) and human HER2-positive breast cancer (An H X, Beckmann M W, Reifenberger G, Bender H G, Niederacher D. Gene amplification and overexpression of CDK4 in sporadic breast carcinomas is associated with high tumor cell proliferation. Am J Pathol 1999; 154: 113-8; Samady L, Dennis J, Budhram-Mahadeo V, Latchman DS. Activation of CDK4 gene expression in human breast cancer cells by the Brn-3b POU family transcription factor. Cancer Biol Ther 2004; 3: 317-23; Takano Y, Takenaka H, Kato Y, Masuda M, Mikami T, Saegusa M, et al. Cyclin D1 overexpression in invasive breast cancers: correlation with cyclin-dependent kinase 4 and oestrogen receptor overexpression, and lack of correlation with mitotic activity.
MMTV-neu mice were generated and observed post-lactation, with tumors observed with a median latency of approximately 25 weeks. Mice were enrolled in therapy studies when tumors reached a standard size (50-60 mm3) that permitted easy serial assessment. […] Tumor volumes were calculated by the formula, Volume=[(width)^2×length]/2. Tumor-bearing mice were euthanized at the indicated times due to predefined morbidity, tumor ulceration, or a tumor size of more than 1.5 cm in diameter.
Tumors were serially assessed weekly using caliper measurements. Therapeutic intervention began once tumors reached 40-64 mm^3. Tumor volume was calculated using the formula […]. All three compounds were administered orally via medicated diets (100 mg/kg/d). Medicated diets were administered for 28 consecutive days and then stopped. RECIST criteria were used to assess objective response rates.

Series [6] deals with HS68 cells (human fibroblast, Rb-positive). The experiment in a line: Cellular wash-out experiment, HS68 cells. Conditions: in vitro wash-out experiment. The class given is cell-based. Here is the method:
[…]. On day 3, one set of treated cell samples were harvested in triplicate (0 Hour sample). Remaining cells were washed two times in PBS-CMF and returned to culture media lacking test compound. Sets of samples were harvested in triplicate at 24, 40, and 48 hours.
(§2) Upon harvesting cells, samples were stained with propidium iodide staining solution and samples run on Dako Cyan Flow Cytometer. The fraction of cells in G0-G1 DNA cell cycle versus the fraction in S-phase DNA cell cycle was determined using FlowJo 7.2 0.2 analysis.

Series [7] relates to human renal proximal tubule epithelial cells (Rb-positive). The experiment in a line: Cellular wash-out experiment, renal proximal tubule epithelial cells. The class given is cell-based. The note with it: 300 nM. As for the experimental part: Alternatively, the same experiment was done using normal Renal Proximal Tubule Epithelial Cells (Rb-positive) obtained from American Type Culture Collection (ATCC, Manassas, Va.). Cells were grown in an incubator at 37° C. in a humidified atmosphere of 5% CO2 in Renal Epithelial Cell Basal Media (ATCC) supplemented with Renal Epithelial Cell Growth Kit (ATCC) in 37° C. humidified incubator.
as §2

Series [8] in a line: PD0332991 pharmacokinetics and HSPC arrest in humans. Type of series: in vivo. The note with it: single administration. Here is the method: When calculated half-life was longer than the duration of the experiment, the half-life was expressed as >the longest incubation time. The calculated half-life is also listed in parentheses. […] The timely resumption of cellular proliferation is necessary for tissue repair, and therefore an overly long period of arrest is undesirable in healthy cells such as HSPCs. The characteristics of a CDK4/6 inhibitor that dictate its arresting duration are its pharmacokinetic (PK) and enzymatic half-lives. Once initiated, a G1-arrest in vivo will be maintained as long as circulating compound remains at an inhibitory level, and as long as the compound engages the enzyme. […] These observations may explain the severe granulocytopenia seen with PD0332991 in the clinic.

Series [9] relates to HSPCs (LKS+). Conditions: single oral dose 150 mg/kg, mice; Roberts et al.; cited from earlier work.
In series [10] the test system is myeloid progenitor cells (LKS-). The note with it: single oral dose 150 mg/kg, mice; Roberts et al.; cited from earlier work.
For series [11] the following is noted: Schwartz et al. (2011); cited from earlier work.

Sequence of CDK6/CycD3 (Q00534 whole entry, species assumed): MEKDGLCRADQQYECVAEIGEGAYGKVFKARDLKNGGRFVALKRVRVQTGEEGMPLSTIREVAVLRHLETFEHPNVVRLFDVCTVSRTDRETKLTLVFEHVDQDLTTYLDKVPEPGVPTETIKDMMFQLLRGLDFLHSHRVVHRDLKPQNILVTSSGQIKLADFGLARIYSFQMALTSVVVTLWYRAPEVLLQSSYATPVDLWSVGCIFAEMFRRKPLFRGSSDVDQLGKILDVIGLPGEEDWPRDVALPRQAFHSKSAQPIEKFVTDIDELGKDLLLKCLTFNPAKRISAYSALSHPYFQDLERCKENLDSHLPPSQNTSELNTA
Sequence of CDK6/CycD3 (P30281 whole entry partner, species assumed): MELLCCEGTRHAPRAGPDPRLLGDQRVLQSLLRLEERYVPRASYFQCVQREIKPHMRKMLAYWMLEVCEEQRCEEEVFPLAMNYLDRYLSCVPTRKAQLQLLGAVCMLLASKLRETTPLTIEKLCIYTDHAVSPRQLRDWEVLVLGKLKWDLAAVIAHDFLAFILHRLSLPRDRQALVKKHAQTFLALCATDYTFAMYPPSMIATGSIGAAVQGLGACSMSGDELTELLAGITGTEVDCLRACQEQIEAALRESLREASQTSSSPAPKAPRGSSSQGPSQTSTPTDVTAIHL
Sequence of CDK4/CyclinD1 (P11802 whole entry, species assumed): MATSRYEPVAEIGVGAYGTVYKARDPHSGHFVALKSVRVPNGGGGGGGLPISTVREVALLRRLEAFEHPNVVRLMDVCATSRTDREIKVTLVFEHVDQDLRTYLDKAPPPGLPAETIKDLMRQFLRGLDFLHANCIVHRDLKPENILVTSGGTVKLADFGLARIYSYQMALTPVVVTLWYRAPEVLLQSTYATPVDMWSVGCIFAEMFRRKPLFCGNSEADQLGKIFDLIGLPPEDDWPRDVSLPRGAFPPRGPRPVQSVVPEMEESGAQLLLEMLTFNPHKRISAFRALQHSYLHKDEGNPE
Sequence of CDK4/CyclinD1 (P24385 whole entry partner, species assumed): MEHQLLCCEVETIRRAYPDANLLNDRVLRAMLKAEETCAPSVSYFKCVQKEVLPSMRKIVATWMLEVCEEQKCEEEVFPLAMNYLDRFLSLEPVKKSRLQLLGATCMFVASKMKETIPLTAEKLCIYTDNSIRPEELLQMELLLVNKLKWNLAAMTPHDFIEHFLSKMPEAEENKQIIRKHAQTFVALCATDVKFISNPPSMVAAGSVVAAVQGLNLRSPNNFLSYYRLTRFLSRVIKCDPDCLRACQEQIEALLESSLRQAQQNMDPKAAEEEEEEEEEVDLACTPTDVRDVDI

As for `CC(C)N1CCN(c2ccc(Nc3ncc4cc5n(c4n3)C3(CCCCC3)CNC5=O)nc2)CC1` [GG], the IC50 on CDK4/CyclinD1 was 0.7 to 1 nM; against CDK6/CycD3, 5 to 6 nM. Further, the “inhibition of cellular proliferation of MCF-7 cells (FIGS. 21-24)” value in series [1] is given as “significant inhibition of cellular proliferation”. Besides, the “inhibition of cellular proliferation of ZR75-1 cells (FIGS. 25-28)” value in series [2] is listed as “significant inhibition of cellular proliferation”. The bioavailability in [3] is 52%. Also, the “EdU incorporation into HSPCs at 12 and 24 hours (FIG. 5A)” value in the series on HSPCs (LKS+) [4] was “reduction in EdU incorporation at 12 hours which was starting to return to normal at 24 hours”. Besides, the “tumor volume during a 28 day course of therapy” value in [5] (100 mg/kg/d in chow) is on record as “marked decrease in tumor volume”. Also, in series [5] (100 mg/kg/day medicated diet, 28 days, RECIST criteria), the objective response rate was 85%.

As to `CC(=O)c1c(C)c2cnc(Nc3ccc(N4CCNCC4)cn3)nc2n(C2CCCC2)c1=O` [PD0332991, 6-acetyl-8-cyclopentyl-5-methyl-2-(5-piperazin-1-yl-pyridin-2-ylammino)-8H-pyrido-[2,3-d]-pyrimidin-7-one], the “inhibition of cellular proliferation of MCF-7 cells (FIGS. 21-24)” value in series [1] is given as “significant inhibition of cellular proliferation”. Further, the “inhibition of cellular proliferation of ZR75-1 cells (FIGS. 25-28)” value in [2] is “significant inhibition of cellular proliferation”. In addition, in [6], the “duration of cell cycle arrest after compound is removed from the cell culture media” value is on record as “more than forty hours”. Besides, the “return to baseline levels of cell division after wash out compared to compounds T, Q, GG, or U” value in [7] is listed as “took significantly longer to return to baseline levels of cell division”. Besides, in series [8], the “duration of cell cycle arrest of HSPC in humans” value is “approximately one week”. Also, in the series with HSPCs (LKS+) [9], the “duration of sustained reduction in HSPC EdU incorporation (FIG. 2)” value is recorded as “greater than 36 hours” and the “time post oral dosing at which HSPC return to baseline cell division (FIG. 2)” value was 48 h. For the same compound, in series [10], the “duration of sustained reduction in myeloid progenitor cell EdU incorporation (FIG. 2)” value is on record as “greater than 36 hours” and the “time post oral dosing at which myeloid progenitor cells return to baseline cell division (FIG. 2)” value is 48 h. Besides, in [11], the “PK half-life in humans” value is 27 h.

The term bioavailability denotes dose-corrected exposure relative to a reference, in per cent.
